In patent publication US20200131180A1, “POSITIVE ALLOSTERIC MODULATORS OF THE MUSCARINIC ACETYLCHOLINE RECEPTOR M1” (Vanderbilt University, priority 2018, published 2020):

Target: T1, human mAChR M1 (Homo sapiens, UniProt P11229)
T1 sequence (P11229 1-460): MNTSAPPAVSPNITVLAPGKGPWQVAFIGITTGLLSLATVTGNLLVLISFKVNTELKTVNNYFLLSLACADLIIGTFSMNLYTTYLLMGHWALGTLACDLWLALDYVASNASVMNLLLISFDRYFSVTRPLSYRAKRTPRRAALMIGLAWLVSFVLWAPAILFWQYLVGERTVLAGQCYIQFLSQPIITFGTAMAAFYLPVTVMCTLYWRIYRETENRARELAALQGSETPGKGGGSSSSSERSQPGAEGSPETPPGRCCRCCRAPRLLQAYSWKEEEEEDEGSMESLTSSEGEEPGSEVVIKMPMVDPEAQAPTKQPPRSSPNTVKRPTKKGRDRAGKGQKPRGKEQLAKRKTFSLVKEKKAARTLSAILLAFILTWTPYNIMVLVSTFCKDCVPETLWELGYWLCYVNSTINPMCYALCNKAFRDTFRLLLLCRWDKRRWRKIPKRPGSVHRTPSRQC
Experiment: mAChR M1 cell-based functional assay (calcium mobilization, PAM activity)
Settings: CHO-K1 cells expressing hM1, calcium flux (Fluo-4); for EC50: concentration-dependent increase in the EC20 acetylcholine response; for Emax: potentiation of EC20 acetylcholine response
Text: Chinese hamster ovary (CHO-K1) cells stably expressing rat (r)M1 were purchased from the American Type Culture Collection and cultured according to their indicated protocol. CHO cells stably expressing human (h)M2, hM3, and hM5 were described previously (Levey, et al., 1991); hM1 and hM4 cDNAs were purchased from Missouri S&T cDNA Resource; rM4 cDNA was provided by T. I. Bonner (National Institutes of Health, Bethesda, Md.). rM2 and rM3 were cloned from a rat brain cDNA library and sequence verified. hM1, rM2, rM3, hM4, and rM4 cDNAs were used to stably transfect CHO-K1 cells purchased from the American Type Culture Collection using Lipofectamine 2000. To make stable rM2, hM2, rM3, hM4, and rM4 cell lines for use in calcium mobilization assays, these cells also were stably transfected with a chimeric G-protein (Gqi5) (provided by B. R. Conklin, University of California, San Francisco) using Lipofectamine 2000. rM1, hM1, rM3, hM3, rM5, and hM5 cells were grown in Ham's F-12 medium containing 10% heat-inactivated fetal bovine serum (FBS), 20 mM HEPES, and 50 μg/mL G418 sulfate. rM2-Gqi5, hM2-Gqi5, and hM4-Gqi5 cells were grown in the same medium also containing 500 μg/mL Hygromycin B. Stable rM4-Gqi5 cells were grown in DMEM containing 10% heat-inactivated FBS, 20 mM HEPES, 400 μg/mL G418 sulfate, and 500 μg/mL Hygromycin B.
For high throughput measurement of agonist-evoked increases in intracellular calcium, CHO-K1 cells stably expressing muscarinic receptors were plated in growth medium lacking G418 and hygromycin at 15,000 cells/20 μL/well in Greiner 384-well black-walled, tissue culture (TC)-treated, clear-bottom plates (VWR). Cells were incubated overnight at 37° C. and 5% CO2. The next day, cells were washed using an ELX 405 (BioTek) with four washes (80 μL) of assay buffer then aspirated to 20 μL. Next, 20 μL of 16 μM Fluo-4/acetoxymethyl ester (Invitrogen, Carlsbad, Calif.) prepared as a 2.3 mM stock in DMSO and mixed in a 1:1 ratio with 10% (w/v) Pluronic F-127 and diluted in assay buffer was added to the wells and the cell plates were incubated for 50 min at 37° C. and 5% CO2. Dye was removed by washing with the ELX 405 (four 80 μL washes of assay buffer) then aspirated to 20 μL. Compound master plates were formatted in an 11 point CRC format (1:3 dilutions) in 100% DMSO with a starting concentration of 10 mM using the BRAVO liquid handler (Agilent). Test compound CRCs were then transferred to daughter plates (240 nL) using the Echo acoustic plate reformatter (Labcyte, Sunnyvale, Calif.) and then diluted into assay buffer (40 μL) to a 2× stock using a Thermo Fisher Combi (Thermo Fisher Scientific, Waltham, Mass.).
Calcium flux was measured using the Functional Drug Screening System (FDSS) 6000 (Hamamatsu Corporation, Tokyo, Japan) as an increase in the fluorescent static ratio. Compounds were applied to cells (20 μL, 2×) using the automated system of the FDSS 6000 at 4 s into the 300 s protocol and the data were collected at 1 Hz. At 144 s into the 300s protocol, 10 μL of an EC20 concentration of the muscarinic receptor agonist acetylcholine was added (5×), followed by the addition of 12 μL an EC80 concentration of acetylcholine at the 230 s time point (5×). Agonist activity was analyzed as a concentration-dependent increase in calcium mobilization upon compound addition. Emax values for agonist activity are expressed relative to the maximum for acetylcholine. Positive allosteric modulator activity was analyzed as a concentration-dependent increase in the EC20 acetylcholine response. Antagonist activity was analyzed as a concentration-dependent decrease in the EC80 acetylcholine response. Concentration-response curves were generated using a four-parameter logistical equation in XLfit curve fitting software (IDBS, Bridgewater, N.J.) for Excel (Microsoft, Redmond, Wash.) or Prism (GraphPad Software, Inc., San Diego, Calif.). […]

EC50 [nM]	Emax [%]	Compound
97.8	68	Cc1c(Cc2ccc(-c3cnn(C)c3)cc2F)cc(C(=O)N[C@H]2CCCC[C@@H]2O)c2nccn12 [compound 57, 6-[[2-fluoro-4-(1-methylpyrazol-4-yl)phenyl]methyl]-N-[(1S,2S)-2-hydroxycyclohexyl]-5-methyl-imidazo[1,2-a]pyridine-8-carboxamide]
507	69	Cn1ccc(-c2cc(F)c(Cc3cc(C(=O)N[C@H]4CCOC[C@@H]4O)c4nccn4c3)c(F)c2)n1 [compound 38, 6-[[2,6-difluoro-4-(1-methylpyrazol-3-yl)phenyl]methyl]-N-[(3R,4S)-3-hydroxytetrahydropyran-4-yl]imidazo[1,2-a]pyridine-8-carboxamide]
313	77	Cn1ccc(-c2ccc(Cc3cc(C(=O)N[C@@H]4CCCC[C@H]4O)c4nccn4c3)cc2)n1 [compound 2, N-[(1R,2R)-2-hydroxycyclohexyl]-6-[[4-(1-methylpyrazol-3-yl)phenyl]methyl]imidazo[1,2-a]pyridine-8-carboxamide]
751	58	Cn1cc(-c2cc(F)c(Cc3cc(C(=O)N[C@H]4CCCC[C@@H]4O)c4nccn4c3)c(F)c2)cn1 [compound 40, 6-[[2,6-difluoro-4-(1-methylpyrazol-4-yl)phenyl]methyl]-N-[(1S,2S)-2-hydroxycyclohexyl]imidazo[1,2-a]pyridine-8-carboxamide]
217	70	Cn1cc(-c2ccc(Cc3cc(C(=O)N[C@H]4CCCC[C@@H]4O)c4nccn4c3)c(F)c2)cn1 [compound 54, 6-[[2-fluoro-4-(1-methylpyrazol-4-yl)phenyl]methyl]-N-[(1S,2S)-2-hydroxycyclohexyl]imidazo[1,2-a]pyridine-8-carboxamide]
1010	47	O=C(N[C@H]1CCCC[C@@H]1O)c1cc(Cc2ccc(-n3cccn3)nc2)cn2ccnc12 [compound 60, N-[(1S,2S)-2-hydroxycyclohexyl]-6-[(6-pyrazol-1-yl-3-pyridyl)methyl]imidazo[1,2-a]pyridine-8-carboxamide]
1190	82	O=C(N[C@H]1CCCC[C@@H]1O)c1cc(Cc2ccc(-n3cccn3)cc2)cc2ncnn12 [compound 20, N-[(1S,2S)-2-hydroxycyclohexyl]-7-[(4-pyrazol-1-ylphenyl)methyl]-[1,2,4]triazolo[1,5-a]pyridine-5-carboxamide]
3770	86	Cn1cc(-c2ccc(Cc3cc(C(=O)N[C@H]4CCC[C@@H]4O)c4ncnn4c3)cn2)cn1 [compound 17, N-[(1S,2S)-2-hydroxycyclopentyl]-6-[[6-(1-methylpyrazol-4-yl)-3-pyridyl]methyl]-[1,2,4]triazolo[1,5-a]pyridine-8-carboxamide]
4070	74	Cn1ccc(-c2ccc(Cc3cc(C(=O)N[C@@H]4CC[C@H]4O)c4ncnn4c3)cc2)n1 [compound 10, N-[(1R,2R)-2-hydroxycyclobutyl]-6-[[4-(1-methylpyrazol-3-yl)phenyl]methyl]-[1,2,4]triazolo[1,5-a]pyridine-8-carboxamide]
474	67	Cn1cc(-c2cc(F)c(Cc3cc(C(=O)N[C@H]4CCOC[C@@H]4O)c4nccn4c3)c(F)c2)cn1 [compound 49, 6-[[2,6-difluoro-4-(1-methylpyrazol-4-yl)phenyl]methyl]-N-[(3R,4S)-3-hydroxytetrahydropyran-4-yl]imidazo[1,2-a]pyridine-8-carboxamide]
	36	O=C(N[C@H]1CCOC[C@@H]1O)c1cc(Cc2ccc(C(F)(F)F)nc2)cn2ccnc12 [compound 66, N-[(3R,4S)-3-hydroxytetrahydropyran-4-yl]-6-[[6-(trifluoromethyl)-3-pyridyl]methyl]imidazo[1,2-a]pyridine-8-carboxamide]
404	77	Cn1cc(-c2ccc(Cc3cc(C(=O)N[C@H]4CCOC[C@@H]4O)c4ncnn4c3)c(F)c2)cn1 [compound 47, 6-[[2-fluoro-4-(1-methylpyrazol-4-yl)phenyl]methyl]-N-[(3R,4S)-3-hydroxytetrahydropyran-4-yl]-[1,2,4]triazolo[1,5-a]pyridine-8-carboxamide]
384	78	Cn1ccc(-c2ccc(Cc3cc(C(=O)N[C@@H]4CCOC[C@H]4O)c4nccn4c3)cc2)n1 [compound 5, N-[(3S,4R)-3-hydroxytetrahydropyran-4-yl]-6-[[4-(1-methylpyrazol-3-yl)phenyl]methyl]imidazo[1,2-a]pyridine-8-carboxamide]
24.6	53	Cc1c(Cc2ccc(-c3ccn(C)n3)cc2)cc(C(=O)N[C@H]2CCOC[C@@H]2O)c2nccn12 [compound 50, N-[(3R,4S)-3-hydroxytetrahydropyran-4-yl]-5-methyl-6-[[4-(1-methylpyrazol-3-yl)phenyl]methyl]imidazo[1,2-a]pyridine-8-carboxamide]
32.2	72	Cc1c(Cc2ccc(-c3cnn(C)c3)cc2F)cc(C(=O)N[C@H]2CCOC[C@@H]2O)c2nccn12 [compound 56, 6-[[2-fluoro-4-(1-methylpyrazol-4-yl)phenyl]methyl]-N-[(3R,4S)-3-hydroxytetrahydropyran-4-yl]-5-methyl-imidazo[1,2-a]pyridine-8-carboxamide]
	45	Cn1cc(-c2ccc(Cc3cc(C(=O)NC4CCOCC4)c4ncnn4c3)cn2)cn1 [compound 14, 6-[[6-(1-methylpyrazol-4-yl)-3-pyridyl]methyl]-N-tetrahydropyran-4-yl-[1,2,4]triazolo[1,5-a]pyridine-8-carboxamide]
483	86	Cn1ccc(-c2ccc(Cc3cc(C(=O)N[C@H]4CCCC[C@@H]4O)c4ncnn4c3)cc2)n1 [compound 7, N-[(1S,2S)-2-hydroxycyclohexyl]-6-[[4-(1-methylpyrazol-3-yl)phenyl]methyl]-[1,2,4]triazolo[1,5-a]pyridine-8-carboxamide]
1200	79	Cn1ccc(-c2ccc(Cc3cc(C(=O)N[C@H]4CCC[C@@H]4O)c4nccn4c3)c(F)c2)n1 [compound 59, 6-[[2-fluoro-4-(1-methylpyrazol-3-yl)phenyl]methyl]-N-[(1S,2S)-2-hydroxycyclopentyl]imidazo[1,2-a]pyridine-8-carboxamide]
2550	82	Cc1nc(-c2ccc(Cc3cc(C(=O)N[C@H]4CCOC[C@@H]4O)c4ncnn4c3)cc2)co1 [compound 29, N-[(3R,4S)-3-hydroxytetrahydropyran-4-yl]-6-[[4-(2-methyloxazol-4-yl)phenyl]methyl]-[1,2,4]triazolo[1,5-a]pyridine-8-carboxamide]
